The target of the assay is T1, endogenous ENaC in HAE cells (Homo sapiens, UniProt P37088+P51168+P51170).
T1 construct: endogenous in cells; host or cells: primary human airway (bronchial) epithelial cells from transplant or donor lungs
The assay can be described thus: Amiloride-sensitive short circuit current in primary human airway epithelial (HAE) cell monolayers, Ussing chamber. The class given is cell-based. The settings on record: for Ki: HBE cells; for inhibition of amiloride sensitive short circuit currents: HAE, increasing concentrations of peptide. From the text: Primary Cultures of HAE Cells—HAE cells were obtained from excess pathological tissue remaining after lung transplantation or from organ donor lungs deemed not suitable for transplantation under a protocol approved by the University of Pittsburgh […] Review Board. All cells were isolated from second through sixth generation bronchi and grown on permeable Transwell supports (Coming Inc.) as previously described (Devor, D. C., and Pilewski, J. M. (1999), UTP inhibits Na^+ absorption in wild-type and DeltaF508 CFTR-expressing human bronchial epithelia, Am. J. Physiol. 276, C827-C837 31. ).
Short Circuit Current Measurements—Cell culture inserts were mounted in modified Ussing chambers (Harvard Apparatus, Holliston, Mass.), and the monolayers were continuously short-circuited with a voltage/current clamp system (Physiologic Instruments, San Diego, Calif.). A 2-mV bipolar pulse was applied periodically to measure the resistance of the monolayer. As previously described by Bridges et al. (Bridges, R. J., Newton, B. B., Pilewski, J. M., Devor, D. C., Poll, C. T., and Hall, R. L. (2001), Na+ transport in normal and CF human bronchial epithelial cells is inhibited by BAY 39-9437, Am. J. Physiol. 281, L16-L23 32, Na^+ transport in normal and CF human bronchial epithelial cells is inhibited by BAY 39-9437), the bath solution contained (in mM) 120 NaCl, 25 NaHCO3, 3.3 KH2PO4, 0.8 K2HPO4, 1.2 MgCl2, 1.2 CaCl2, and 10 glucose. The pH of this solution was 7.4 when gassed with a mixture of 95% O2-5% CO2 at 37° C.
Primary cultures of HAE cells grown on permeable membrane supports and mounted in modified Ussing chambers were continuously short-circuited by a voltage clamp amplifier (Physiologic Instruments, San Diego, Calif.). Monolayers were exposed to increasing concentrations of either the γ-peptide (closed circles) or a scrambled peptide (open circles). […] (n=8-9).
Vectors and Cell Culture—Wild-type, C-terminal and double epitope tagged mouse ENaC subunit cDNAs were previously described (Hughey, R. P., Mueller, G. M., Bruns, J. B., Kinlough, C. L., Poland, P. A., Harkleroad, K. L., Carattino, M. D., and Kleyman, T. R. (2003) J Biol Chem 278, 37073-37082 and Ahn, Y. J., Brooker, D. R., Kosari, F., Harte, B. J., Li, J., Mackler, S. A., and Kleyman, T. R. (1999), Cloning and functional expression of the mouse epithelial sodium channel, Am J Physiol 277, F121-129). The γ subunit mutations were generated in pcDNA3.1 (+) using a standard two-step PCR method. A cDNA clone (IMAGE #: 3600399) encoding full length mouse prostasin was obtained from Open Biosystems (Huntsville, Ala.) and sub-cloned into pcDNA3.1 (+) (Invitrogen, Carlsbad, Calif.). MDCK type 1 cells were a gift from Barry M. Gumbiner (Memorial Sloan-Kettering Cancer Center, New York) and were cultured as previously described (Lavelle, J. P., Negrete, H. O., Poland, P. A., Kinlough, C. L., Meyers, S. D., Hughey, R. P., and Zeidel, M. L. (1997), Low permeabilities of MDCK cell monolayers: a model barrier epithelium, Am J Physiol 273, F67-75). CCD (mpkCCDc14) cells were a gift from Alain Vandewalle (Institut National de la Santéet de la Recherche Médicale, Paris, France) and were cultured as previously described (Bens, M., Vallet, V., Cluzeaud, F., Pascual-Letallec, L., Kahn, A., Rafestin-Oblin, M. E., Rossier, B. C., and Vandewalle, A. (1999) J Am Soc Nephrol 10, 923-934). HAE cells were isolated and cultured as described (Devor, D. C., Bridges, R. J., and Pilewski, J. M. (2000), Pharmacological modulation of ion transport across wild-type and DeltaF508 CFTR-expressing human bronchial epithelia, Am J Physiol Cell Physiol 279, C461-479). […]

What is called IC50 is the concentration at which inhibition is half-maximal.

Several values for one entry are separate records, joined by “and”; a condition that tells them apart may be missing. Equal values may be shown once. Entries after “also recorded” stand apart in the source; their conditions may differ. Read-outs that look alike come from different tables or passages of the source.

T1 sequence (P37088 1-178): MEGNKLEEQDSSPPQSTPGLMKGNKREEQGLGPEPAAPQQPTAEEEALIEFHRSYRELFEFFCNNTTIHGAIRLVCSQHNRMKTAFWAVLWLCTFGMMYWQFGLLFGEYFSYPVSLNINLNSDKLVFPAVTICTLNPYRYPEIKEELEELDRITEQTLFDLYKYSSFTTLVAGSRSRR
T1 sequence (P37088 205-669): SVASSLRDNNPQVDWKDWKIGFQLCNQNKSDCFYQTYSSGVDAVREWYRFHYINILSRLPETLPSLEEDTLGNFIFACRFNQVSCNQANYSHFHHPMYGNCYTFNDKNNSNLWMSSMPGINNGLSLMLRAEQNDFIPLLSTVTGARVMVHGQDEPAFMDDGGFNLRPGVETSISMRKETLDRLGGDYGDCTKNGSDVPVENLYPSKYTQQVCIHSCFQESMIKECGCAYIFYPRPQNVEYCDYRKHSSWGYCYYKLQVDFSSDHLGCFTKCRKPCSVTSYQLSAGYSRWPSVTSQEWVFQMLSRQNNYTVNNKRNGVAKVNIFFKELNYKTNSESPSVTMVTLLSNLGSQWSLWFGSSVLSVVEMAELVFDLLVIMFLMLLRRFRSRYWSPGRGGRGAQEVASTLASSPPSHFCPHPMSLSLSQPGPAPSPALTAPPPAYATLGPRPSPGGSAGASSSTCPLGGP
T1 sequence (P51168 whole entry): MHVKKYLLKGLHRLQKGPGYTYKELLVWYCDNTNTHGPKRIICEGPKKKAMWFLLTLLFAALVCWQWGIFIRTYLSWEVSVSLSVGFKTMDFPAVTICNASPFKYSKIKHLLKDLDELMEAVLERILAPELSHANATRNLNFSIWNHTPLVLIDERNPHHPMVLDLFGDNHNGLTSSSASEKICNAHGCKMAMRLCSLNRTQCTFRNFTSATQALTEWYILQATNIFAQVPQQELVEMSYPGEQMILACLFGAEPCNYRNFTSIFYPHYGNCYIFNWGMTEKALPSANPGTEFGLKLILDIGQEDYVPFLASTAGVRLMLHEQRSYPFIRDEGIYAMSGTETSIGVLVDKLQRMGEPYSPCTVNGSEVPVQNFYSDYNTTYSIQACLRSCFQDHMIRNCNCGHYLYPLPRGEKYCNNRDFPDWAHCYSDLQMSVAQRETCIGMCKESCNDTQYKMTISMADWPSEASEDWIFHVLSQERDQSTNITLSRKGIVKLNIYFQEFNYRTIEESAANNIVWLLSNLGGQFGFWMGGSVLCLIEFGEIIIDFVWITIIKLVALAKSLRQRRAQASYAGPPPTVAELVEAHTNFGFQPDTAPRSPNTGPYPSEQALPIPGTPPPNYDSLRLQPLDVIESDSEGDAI
T1 sequence (P51170 1-138): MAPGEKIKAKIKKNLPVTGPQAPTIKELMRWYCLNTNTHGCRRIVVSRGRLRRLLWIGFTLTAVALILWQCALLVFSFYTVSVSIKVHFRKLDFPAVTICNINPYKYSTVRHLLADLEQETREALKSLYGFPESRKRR
T1 sequence (P51170 182-649): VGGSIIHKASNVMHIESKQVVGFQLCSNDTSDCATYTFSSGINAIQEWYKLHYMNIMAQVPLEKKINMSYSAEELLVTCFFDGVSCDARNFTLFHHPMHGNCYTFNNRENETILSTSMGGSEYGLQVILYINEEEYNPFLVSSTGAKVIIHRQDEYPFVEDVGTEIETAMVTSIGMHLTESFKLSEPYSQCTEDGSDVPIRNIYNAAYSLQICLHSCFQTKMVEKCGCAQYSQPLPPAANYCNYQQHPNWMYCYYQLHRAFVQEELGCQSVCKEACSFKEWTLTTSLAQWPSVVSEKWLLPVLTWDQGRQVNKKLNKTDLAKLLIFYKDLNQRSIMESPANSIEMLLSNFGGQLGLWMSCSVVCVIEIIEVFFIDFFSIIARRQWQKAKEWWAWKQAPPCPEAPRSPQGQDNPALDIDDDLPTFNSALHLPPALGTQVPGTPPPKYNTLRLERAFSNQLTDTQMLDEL

“Ac-DLRGALPHPLQRLRTPPPPNPARSAR-NH2 [α-26]”: the Ki (stated jointly for HBE or mpkCCDc14, read-out: Ki, block of endogenous ENaC activity) fell in the range of 50 to 100 µM.
With “Ac-EAGSMRSTWEGTPPRFLNLIPLLVFNENEKGKARDFFTGRKRK-NH2 [γ-43]”, under “HAE primary cultures, nonlinear curve fitting, read-out: IC50, inhibition of short circuit currents”, the concentration for half-maximal inhibition (IC50) is 2 µM and 2 to 3 µM. Further, the “inhibition of amiloride sensitive short circuit currents” value is, setting by setting: (listed as γ cleavage product) “inhibited in a dose dependent manner”; (listed as γ-peptide) “potent inhibitor; also recorded: strong inhibition”. The Ki (stated jointly for HBE and mpkCCDc14, read-out: apparent Ki, inhibition of endogenous ENaC activity) is around 2 µM.

Source of the values: patent publication US20070149456A1, “Epithelial sodium channel inhibiting agents and uses therefor” (University of Pittsburgh, priority 2005, published 2007).
